From patent publication US20220211692A1, “Modulators of the Cystic Fibrosis Transmembrane Conductance Regulator Protein and Methods of Use” (AbbVie Global Enterprises Ltd., priority 2021, published 2022)
Where two headings read alike, the source gives them in different places.

Key:
F508delCFTR = biological target: T1, F508delCFTR (Homo sapiens, UniProt P13569, DEL508-508); test: Cell Surface Expression-Horse Radish Peroxidase (CSE-HRP) assay in CFBE41o-F508delCFTR-HRP cells; assay type: cell-based; details: for EC50: CFBE41o-F508delCFTR-HRP cells, 18-24 hours at 33° C.; for Emax / Maximum % activity (with co-corrector): normalized to on-plate positive control; for Emax: read-out: Maximum % activity (without co-corrector)
T1 construct: expressed in transfected cells; host or cells: CFBE41o- human lung derived epithelial cell line, doxycycline-induced expression
Protocol: A cellular assay for measuring the F508delCFTR cell surface expression after correction with test compounds either without or with a co-corrector (2 μM of 3-[(2R,4R)-4-({[1-(2,2-difluoro-1,3-benzodioxol-5-yl)cyclopropyl]carbonyl}amino)-7-methoxy-3,4-dihydro-2H-chromen-2-yl]benzoic acid), was developed in human lung derived epithelial cell line (CFBE41o-) (Veit G et al, (2012) Mol Biol Cell. 23(21): 4188-4202). The development was achieved by expressing the F508delCFTR mutation along with a horseradish peroxidase (HRP) in the fourth exofacial loop, and then measuring the HRP activity using luminescence readout from these cells, CFBE41o-F508delCFTR-HIRP, that were incubated overnight with the test corrector compounds, either without or with the co-corrector. For this primary assay, the CFBE41o-F508delCFTR-HRP cells were plated in 384-well plates (Greiner Bio-one; Cat 781080) at 4,000 cells/well along with 0.5 μg/mL doxycycline to induce the F508delCFTR-HRP expression and further incubated at 37° C., […] for 68-72 hours. The test compounds were then added either without or with a co-corrector at the required concentrations and further incubated for 18-24 hours at 33° C. The highest concentration tested was 20 μM or 30 μM (GI-1 to GIII-36) with an 8-point concentration response curve using a 3-fold dilution in both the test compound without or with the co-corrector. Three replicate plates were run to determine one EC50. All plates contained negative controls (dimethyl sulfoxide, DMSO) and positive control (2 μM or 3 μM (GI-1 to GIII-36) of 3-[(2R,4R)-4-({[1-(2,2-difluoro-1,3-benzodioxol-5-yl)cyclopropyl]carbonyl}amino)-7-methoxy-3,4-dihydro-2H-chromen-2-yl]benzoic acid) as well as on-plate concentration response of the positive control. Post incubation, the plates were washed 5× times with Dulbecco's phosphate buffered saline (DPBS), followed by the addition of the HRP substrate, luminol (50 μL), and measuring the HRP activity using luminescence readout on EnVision® Multilabel Plate Reader (Perkin Elmer; product number 2104-0010). The raw counts from the experiment were analyzed using Accelrys® Assay Explorer v3.3.
Z′ greater than 0.5 was used as passing quality control criteria for the plates. The Z′ is defined as:
1−[3*SDPositive Control+3*SDNegative Control/Absolute(MeanPositive Control−MeanNegative Control)]
The % activity measured at each of the 8 test concentrations of the test compound added either without or with a co-corrector (2 μM or 3 μM (GI-1 to GIII-36) of 3-[(2R,4R)-4-({[1-(2,2-difluoro-1,3-benzodioxol-5-yl)cyclopropyl]carbonyl}amino)-7-methoxy-3,4-dihydro-2H-chromen-2-yl]benzoic acid) was normalized to the on-plate positive control using the following formulae:
% activity (Test compound without co-corrector)=[(test compound without co-corrector response−DMSO response)/(positive control response−DMSO response)]*100
% activity (Test compound with co-corrector)=[(test compound with co-corrector response−DMSO response)/(positive control response−DMSO response)]*100
The maximum % activity achieved for the test compound either without or with a co-corrector at any tested concentration is presented in Table 3 along with the respective EC50's calculated using the following general sigmoidal curve with variable Hill slope equation (described as Model 42 in the Accelrys® Assay Explorer v3.3 software):
General sigmoidal curve with concentration, response, top, bottom, EC50 and Hill slope. This model describes a sigmoidal curve with an adjustable baseline, a. The equation can be used to fit curves where response is either increasing or decreasing with respect to the independent variable, “x”.

F508del/F508del CFTR = biological target: T2, F508del/F508del CFTR (Homo sapiens, UniProt P13569, DEL508-508); test: Trans-Epithelial Current Clamp (TECC) assay using primary human bronchial epithelial cells; assay type: cell-based; details: for Emax (% Dual): maximum percent activity relative to positive control (co-corrector 0.15 μM + potentiator 0.45 μM = 100%); for EC50: primary hBE cells F508del/F508del, test corrector with co-corrector and potentiator, 18-24 hours, equivalent CFTR current
T2 construct: cells isolated from CF patients with the homozygous mutation; endogenous in cells; host or cells: primary human bronchial epithelial (hBE) cells from CF patients homozygous for F508del
Excerpt: A cell-based assay was developed using the primary human bronchial epithelial cells (hBE cells) with F508del/F508del CFTR and other mutations.
Primary human bronchial epithelial (hBE) cells from CFTR patients with homozygous F508del/F508del mutation were expanded from 1×10^6 to 250×10^6 cells (Neuberger, T et al., 2011, Methods Mol Biol 741:39-54). For this purpose, cells isolated from CF patients with the homozygous mutation, procured from the CF center tissue procurement and cell culture core at the Marsico Lung Institute at UNC (Randell), the Cystic Fibrosis translational research center at McGill University (University), and Rosalind Franklin University Medical School (RFUMS) were seeded onto 24 well Corning (Cat #3378) filter plates that were coated with 3T3 conditioned media and grown at an air-liquid interface for 35 days using an Ultroser® G supplemented differentiation media. All the primary human bronchial epithelial cells were collected in accordance with institutional review board approval protocols. Apical surface mucus was removed 72 hours before the experiment by incubating the apical surface of the cells for 30 minutes with 3 mM dithiothreitol (DTT) prepared in Dulbecco's phosphate buffered saline (DPBS) with Ca^2+ and Mg^2+. This was followed with aspiration of the mucus from the apical surface along with DPBS. The apical surface was re-washed with phosphate buffered saline (PBS) incubated for 30 minutes followed with aspiration. These hBE cells were then incubated with the desired concentrations of the test C2 corrector compounds along with co-corrector, 4-[(2R,4R)-4-({[1-(2,2-difluoro-1,3-benzodioxol-5-yl)cyclopropyl]carbonyl}amino)-7-(difluoromethoxy)-3,4-dihydro-2H-chromen-2-yl]benzoic acid and potentiator, (5-{3-amino-5-[4-(trifluoromethoxy)benzene-1-sulfonyl]pyridin-2-yl}-1,3,4-oxadiazol-2-yl)methanol, for 18-24 hours at 37° C., 5% CO2. The desired concentrations of the correctors and potentiator compounds were prepared from the 10 mM stocks in differentiation media and were always applied on the basolateral side of the epithelial cells. We also used an assay format where a fixed concentration of potentiator was added chronically along with the corrector compounds. This chronic treatment with the potentiator helped eliminate any interaction that might happen with CFTR modulators (correctors and potentiators) and thereby determined the true efficacy of the modulator combinations reflective of clinical relevance.
The assay uses a Transepithelial Current Clamp (TECC) (Vu, C B et al., 2017; J Med Chem 60:458-473) instrument that can measure the functionality of the mutated channel by measuring the equivalent CFTR current (IEQ) generated by the polarized primary epithelial cells. We used a TECC-24 with a 24-channel electrode manifold allowing for the simultaneous measurement of the transepithelial voltage, VT, and transepithelial resistance, RT, under current clamp conditions, from 24 filters using a 24 well Costar filter plate. The design of the filters in the 24 well filter plates was exactly the same as the design of an individual Transwell filter used in the classical Ussing Chamber with a surface area of 0.33 cm^2. Each measured VT values were corrected for the electrode offset potential measured using buffer alone in a separate plate, and each measured RT values were then corrected for the combined solution series and empty filter resistances. The corrected VT and RT values were then used to calculate the equivalent current, IEQ using Ohm's law (IEQ=VT/RT). The area under the curve (AUC) for the time period between the forskolin peak IEQ response and at the time of bumetanide addition was also calculated using a one-third trapezoid method, in addition to calculating the IEQ. The assay was run in a 24-well format and all 24-wells were measured at the same time point giving a higher throughput for this assay. […]

[1] = with co-corrector 2 μM, read-out: EC50 (with co-corrector)
[2] = without co-corrector, read-out: EC50 (without co-corrector)

T1 sequence (P13569 with tags, fused parts or gaps DEL508-508): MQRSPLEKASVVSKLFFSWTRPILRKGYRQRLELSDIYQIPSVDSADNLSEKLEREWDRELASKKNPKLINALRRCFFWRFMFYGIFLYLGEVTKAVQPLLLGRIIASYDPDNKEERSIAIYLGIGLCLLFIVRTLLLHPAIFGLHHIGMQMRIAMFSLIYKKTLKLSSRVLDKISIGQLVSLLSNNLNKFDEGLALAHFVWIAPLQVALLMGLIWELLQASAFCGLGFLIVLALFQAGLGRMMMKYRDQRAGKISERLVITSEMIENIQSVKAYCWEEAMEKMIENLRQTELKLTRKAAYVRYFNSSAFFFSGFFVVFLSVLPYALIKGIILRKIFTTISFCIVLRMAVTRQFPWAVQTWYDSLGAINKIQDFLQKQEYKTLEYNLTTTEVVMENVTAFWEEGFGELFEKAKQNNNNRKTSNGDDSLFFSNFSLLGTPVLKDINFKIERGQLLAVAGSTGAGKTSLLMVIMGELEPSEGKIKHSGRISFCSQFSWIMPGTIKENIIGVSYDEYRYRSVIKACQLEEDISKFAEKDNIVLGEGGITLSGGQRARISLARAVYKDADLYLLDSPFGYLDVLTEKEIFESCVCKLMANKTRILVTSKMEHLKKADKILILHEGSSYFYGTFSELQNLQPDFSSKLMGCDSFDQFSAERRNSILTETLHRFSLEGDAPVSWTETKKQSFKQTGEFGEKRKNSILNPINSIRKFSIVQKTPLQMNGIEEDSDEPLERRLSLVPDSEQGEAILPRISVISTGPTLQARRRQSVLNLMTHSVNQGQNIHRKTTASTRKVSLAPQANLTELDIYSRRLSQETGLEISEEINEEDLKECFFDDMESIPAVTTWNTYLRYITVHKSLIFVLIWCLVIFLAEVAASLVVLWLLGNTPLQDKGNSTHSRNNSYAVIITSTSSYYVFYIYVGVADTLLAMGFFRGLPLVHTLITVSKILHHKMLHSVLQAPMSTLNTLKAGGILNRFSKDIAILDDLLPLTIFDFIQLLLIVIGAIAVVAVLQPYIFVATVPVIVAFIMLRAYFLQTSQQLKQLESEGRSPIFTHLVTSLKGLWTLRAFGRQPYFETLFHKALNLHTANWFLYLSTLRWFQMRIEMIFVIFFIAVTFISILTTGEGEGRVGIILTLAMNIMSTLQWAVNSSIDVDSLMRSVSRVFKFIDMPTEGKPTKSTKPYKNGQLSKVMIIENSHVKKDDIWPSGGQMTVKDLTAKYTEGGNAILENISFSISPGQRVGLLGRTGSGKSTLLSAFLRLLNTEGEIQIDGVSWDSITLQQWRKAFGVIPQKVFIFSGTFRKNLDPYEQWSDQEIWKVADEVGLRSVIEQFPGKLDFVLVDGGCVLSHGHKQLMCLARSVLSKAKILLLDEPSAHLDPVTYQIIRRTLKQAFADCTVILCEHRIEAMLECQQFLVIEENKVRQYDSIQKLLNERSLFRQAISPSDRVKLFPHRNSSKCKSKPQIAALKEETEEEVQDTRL
T2 sequence (P13569 with tags, fused parts or gaps DEL508-508): as above

EC50 (F508delCFTR; [1]) | EC50 (F508delCFTR; [2]) | Emax (F508delCFTR; without co-corrector) | Emax (% Dual) (F508del/F508del CFTR) | EC50 (F508del/F508del CFTR) | Maximum % activity (with co-corrector) (F508delCFTR; with co-corrector 2 μM) | SMILES
840 nM | 1650 nM | 865% | 256 % Dual | 33.7 nM | – | CCOc1ccc(CC)cc1[C@@]1(C(=O)NS(=O)(=O)c2cccc3nc(C)ccc23)CCCO1 [Example 9, (2R)-2-(2-ethoxy-5-ethylphenyl)-N-(2-methylquinoline-5-sulfonyl)oxolane-2-carboxamide]
2700 nM | 3930 nM | 303% | 129 % Dual | > 300 nM | 711% | CCOc1ccc(CC)cc1[C@]1(C(=O)NS(=O)(=O)c2cccc3nc(C)ccc23)CCCO1 [Example 10, (2S)-2-(2-ethoxy-5-ethylphenyl)-N-(2-methylquinoline-5-sulfonyl)oxolane-2-carboxamide]
1560 nM | 2660 nM | 931% | 229 % Dual | 11.5 nM | – | CCc1ccc(Oc2ccccc2)c(C2(C(=O)NS(=O)(=O)c3cccc4nc(C)ccc34)CCCO2)c1 (stereo not shown) [Example 17, 2-(5-ethyl-2-phenoxyphenyl)-N-(2-methylquinoline-5-sulfonyl)oxolane-2-carboxamide]
1290 nM | 1540 nM | 857% | 199 % Dual | 11.8 nM | – | CCc1ccc(Oc2cccnc2OC(F)F)c(C2(C(=O)NS(=O)(=O)c3cccc4nc(C)ccc34)CCCO2)c1 (stereo not shown) [Example 21, 2-(2-{[2-(difluoromethoxy)pyridin-3-yl]oxy}-5-ethylphenyl)-N-(2-methylquinoline-5-sulfonyl)oxolane-2-carboxamide]

The remaining lines, values behind:

SMILES | EC50 (F508delCFTR; [1]) | EC50 (F508delCFTR; [2]) | Emax (F508delCFTR; without co-corrector) | Emax (% Dual) (F508del/F508del CFTR) | EC50 (F508del/F508del CFTR) | Maximum % activity (with co-corrector) (F508delCFTR; with co-corrector 2 μM)
COc1ccc(C)cc1[C@]1(C(=O)NS(=O)(=O)c2cccc3nc(C)ccc23)CC[C@H](c2ccccc2)O1 [Example 11, (2S,5R)-2-(2-methoxy-5-methylphenyl)-N-(2-methylquinoline-5-sulfonyl)-5-phenyloxolane-2-carboxamide] | 1190 nM | 1110 nM | 542% | 158 % Dual | 17.1 nM | –
COc1ccc(C)cc1[C@@]1(C(=O)NS(=O)(=O)c2cccc3nc(C)ccc23)CC[C@H](c2ccccc2)O1 [Example 12, (2R,5R)-2-(2-methoxy-5-methylphenyl)-N-(2-methylquinoline-5-sulfonyl)-5-phenyloxolane-2-carboxamide] | 680 nM | 700 nM | 735% | 315 % Dual | 68 nM | –
CCc1ccc(OC[C@H](C)OC)c([C@]2(C(=O)NS(=O)(=O)c3cccc4nc(C)ccc34)CCCO2)c1 [Example 13, (2S)-2-{5-ethyl-2-[(2S)-2-methoxypropoxy]phenyl}-N-(2-methylquinoline-5-sulfonyl)oxolane-2-carboxamide] | 4990 nM | 6490 nM | 122% | 119 % Dual | > 300 nM | 399%
COc1ccc(C)cc1[C@@]1(C(=O)NS(=O)(=O)c2cccc3nc(C)ccc23)CC2(CC2)CO1 [Example 15, (6R)-6-(2-methoxy-5-methylphenyl)-N-(2-methylquinoline-5-sulfonyl)-5-oxaspiro[2.4]heptane-6-carboxamide] | 1010 nM | 1510 nM | 307% | 178 % Dual | 123 nM | 708%
COc1ccc(C)cc1[C@]1(C(=O)NS(=O)(=O)c2cccc3nc(C)ccc23)CC2(CC2)CO1 [Example 16, (6S)-6-(2-methoxy-5-methylphenyl)-N-(2-methylquinoline-5-sulfonyl)-5-oxaspiro[2.4]heptane-6-carboxamide] | 2550 nM | 4800 nM | 147% | 110 % Dual | > 300 nM | 444%
COc1ccc(C)cc1[C@@]1(C(=O)NS(=O)(=O)c2cccc3nc(C)ccc23)C[C@@H](C)CO1 [Example 19, (2R,4R)-2-(2-methoxy-5-methylphenyl)-4-methyl-N-(2-methylquinoline-5-sulfonyl)oxolane-2-carboxamide] | 720 nM | 880 nM | 339% | 253 % Dual | 33 nM | 850%
COc1ccc(C)cc1[C@@]1(C(=O)NS(=O)(=O)c2cccc3nc(C)ccc23)C[C@H](C)CO1 [Example 20, (2R,4S)-2-(2-methoxy-5-methylphenyl)-4-methyl-N-(2-methylquinoline-5-sulfonyl)oxolane-2-carboxamide] | 680 nM | 1230 nM | 366% | 201 % Dual | 35.1 nM | 862%
